Test results as given in patent US20170190671A1, “BIS(ARYL)CATECHOL DERIVATIVES AS HERBICIDES” (E I DU PONT DE NEMOURS AND COMPANY, priority 2014, published 2017).

Key:
Assay in all cases: Test C postemergence
Assay type in all cases: in vivo
[1] = system: yellow nutsedge (Cyperus esculentus); conditions: Cyperus, post-emergence, 336 h, Postemergence, scale 0 to 100, read-out: Plant response rating, Nutsedge, Yellow
Summary of the method: (§1)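 Seeds sown in a loam soil and sand blend were treated preemergence; plants in peat-moss/vermiculite medium were sprayed at the 1- to 4-leaf stage (2-18 cm). Chemicals were in a non-phytotoxic surfactant-containing solvent. After 13 to 15 days in a greenhouse, injury was visually rated against controls on a 0-100 scale.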

[2] = system: large (Lg) crabgrass (Digitaria sanguinalis); conditions: Digitaria sanguinalis, post-emergence, 336 h, Postemergence, scale 0 to 100, read-out: Plant response rating, Crabgrass, Large
Summary of the method: as §1

[3] = system: blackgrass (Alopecurus myosuroides); conditions: Alopecurus myosuroides, post-emergence, 336 h, Postemergence, scale 0 to 100, read-out: Plant response rating, Blackgrass
Summary of the method: as §1

[4] = system: johnsongrass (Sorghum halepense); conditions: Sorghum halepense, post-emergence, 336 h, Postemergence, scale 0 to 100, read-out: Plant response rating, Johnsongrass
Summary of the method: as §1

[5] = system: winter wheat (Triticum aestivum); conditions: Triticum aestivum, post-emergence, 336 h, Postemergence, scale 0 to 100, read-out: Plant response rating, Wheat
Summary of the method: as §1

[6] = system: Italian ryegrass (Lolium multiflorum); conditions: Lolium multiflorum, post-emergence, 336 h, Postemergence, scale 0 to 100, read-out: Plant response rating, Ryegrass, Italian
Summary of the method: as §1

[7] = system: velvetleaf (Abutilon theophrasti); conditions: Abutilon theophrasti, post-emergence, Postemergence, scale 0 to 100, read-out: Plant response rating, Velvetleaf
Summary of the method: as §1

[8] = system: giant foxtail (Setaria faberii); conditions: Setaria faberi, post-emergence, 336 h, Postemergence, scale 0 to 100, read-out: Plant response rating, Foxtail, Giant
Summary of the method: as §1

[9] = system: morningglory (Ipomoea coccinea); conditions: Ipomoea, post-emergence, 336 h, Postemergence, scale 0 to 100, read-out: Plant response rating, Morningglory
Summary of the method: as §1

[10] = system: barnyardgrass (Echinochloa crus-galli); conditions: Echinochloa crus-galli, post-emergence, Postemergence, scale 0 to 100, read-out: Plant response rating, Barnyardgrass
Summary of the method: as §1

[11] = system: pigweed (Amaranthus retroflexus); conditions: Amaranthus retroflexus, post-emergence, 336 h, Postemergence, scale 0 to 100, read-out: Plant response rating, Pigweed
Summary of the method: as §1

[12] = system: oilseed rape (Brassica napus); conditions: Brassica napus, post-emergence, Postemergence, scale 0 to 100, read-out: Plant response rating, Oilseed Rape
Summary of the method: as §1

wild oat (Avena fatua) = conditions: Avena fatua, post-emergence, Postemergence, scale 0 to 100, read-out: Plant response rating, Oat, Wild
Summary of the method: as §1

[13] = system: chickweed (common chickweed, Stellaria media); conditions: Stellaria media, post-emergence, Postemergence, scale 0 to 100, read-out: Plant response rating, Chickweed
Summary of the method: as §1

kochia (Kochia scoparia) = conditions: Bassia scoparia, post-emergence, Postemergence, scale 0 to 100, read-out: Plant response rating, Kochia
Summary of the method: as §1

Fc1cccc(Oc2ncc(Cl)cn2)c1Oc1ccc(Cl)nc1 [Compound 20]
pest or weed control at 31 g/ha ([1]; 31 g ai/ha): 0% | pest or weed control at 62 g/ha ([1]; 62 g ai/ha): 5% | pest or weed control at 125 g/ha ([1]; 125 g ai/ha): 10% | pest or weed control at 250 g/ha ([1]; 250 g ai/ha): 10% | pest or weed control at 31 g/ha ([2]; 31 g ai/ha): 5% | pest or weed control at 62 g/ha ([2]; 62 g ai/ha): 5% | pest or weed control at 125 g/ha ([2]; 125 g ai/ha): 10% | pest or weed control at 250 g/ha ([2]; 250 g ai/ha): 20% | pest or weed control at 31 g/ha ([3]; 31 g ai/ha): 5% | pest or weed control at 62 g/ha ([3]; 62 g ai/ha): 10% | pest or weed control at 125 g/ha ([3]; 125 g ai/ha): 5% | pest or weed control at 250 g/ha ([3]; 250 g ai/ha): 15% | pest or weed control at 31 g/ha ([4]; 31 g ai/ha): 5% | pest or weed control at 62 g/ha ([4]; 62 g ai/ha): 5% | pest or weed control at 125 g/ha ([4]; 125 g ai/ha): 5% | pest or weed control at 250 g/ha ([4]; 250 g ai/ha): 5% | plant injury at 31 g/ha ([5]; 31 g ai/ha): 0% | plant injury at 62 g/ha ([5]; 62 g ai/ha): 0% | plant injury at 125 g/ha ([5]; 125 g ai/ha): 5% | plant injury at 250 g/ha ([5]; 250 g ai/ha): 5% | pest or weed control at 31 g/ha ([6]; 31 g ai/ha): 5% | pest or weed control at 62 g/ha ([6]; 62 g ai/ha): 5% | pest or weed control at 125 g/ha ([6]; 125 g ai/ha): 10% | pest or weed control at 250 g/ha ([6]; 250 g ai/ha): 15% | pest or weed control at 31 g/ha ([7]; 31 g ai/ha): 35% | pest or weed control at 62 g/ha ([7]; 62 g ai/ha): 30% | pest or weed control at 125 g/ha ([7]; 125 g ai/ha): 35% | pest or weed control at 250 g/ha ([7]; 250 g ai/ha): 55% | pest or weed control at 31 g/ha ([8]; 31 g ai/ha): 15% | pest or weed control at 62 g/ha ([8]; 62 g ai/ha): 20% | pest or weed control at 125 g/ha ([8]; 125 g ai/ha): 15% | pest or weed control at 250 g/ha ([8]; 250 g ai/ha): 15% | pest or weed control at 31 g/ha ([9]; 31 g ai/ha): 30% | pest or weed control at 62 g/ha ([9]; 62 g ai/ha): 60% | pest or weed control at 125 g/ha ([9]; 125 g ai/ha): 65% | pest or weed control at 250 g/ha ([9]; 250 g ai/ha): 65% | pest or weed control at 31 g/ha ([10]; 31 g ai/ha): 5% | pest or weed control at 62 g/ha ([10]; 62 g ai/ha): 5% | pest or weed control at 125 g/ha ([10]; 125 g ai/ha): 10% | pest or weed control at 250 g/ha ([10]; 250 g ai/ha): 10% | pest or weed control at 31 g/ha ([11]; 31 g ai/ha): 75% | pest or weed control at 62 g/ha ([11]; 62 g ai/ha): 80% | pest or weed control at 125 g/ha ([11]; 125 g ai/ha): 90% | pest or weed control at 250 g/ha ([11]; 250 g ai/ha): 98% | plant injury at 31 g/ha ([12]; 31 g ai/ha): 15% | plant injury at 62 g/ha ([12]; 62 g ai/ha): 70% | plant injury at 125 g/ha ([12]; 125 g ai/ha): 80% | plant injury at 250 g/ha ([12]; 250 g ai/ha): 70% | pest or weed control at 31 g/ha (wild oat (Avena fatua); 31 g ai/ha): 5% | pest or weed control at 62 g/ha (wild oat (Avena fatua); 62 g ai/ha): 10% | pest or weed control at 125 g/ha (wild oat (Avena fatua); 125 g ai/ha): 10% | pest or weed control at 250 g/ha (wild oat (Avena fatua); 250 g ai/ha): 10% | pest or weed control at 31 g/ha ([13]; 31 g ai/ha): 35% | pest or weed control at 62 g/ha ([13]; 62 g ai/ha): 40% | pest or weed control at 125 g/ha ([13]; 125 g ai/ha): 45% | pest or weed control at 250 g/ha ([13]; 250 g ai/ha): 80% | pest or weed control at 31 g/ha (kochia (Kochia scoparia); 31 g ai/ha): 80% | pest or weed control at 62 g/ha (kochia (Kochia scoparia); 62 g ai/ha): 90% | pest or weed control at 125 g/ha (kochia (Kochia scoparia); 125 g ai/ha): 90% | pest or weed control at 250 g/ha (kochia (Kochia scoparia); 250 g ai/ha): 98%
